From patent US4760136A, “Chartreusin derivatives and salts thereof” (Ishihara Sangyo Kaisha, Ltd., priority 1984, dated 1988)
Like-named read-outs stand apart in the source and are kept apart here.

Columns and labels:
P-388 leukemia cells = experiment: Antitumor activity: P-388 leukemia cells inoculated intraperitoneally, drug administered intravenously, BDF1 mice; type: in vivo; details: for response vs control in vivo at 20 mg/kg: dose b: 20 mg/kg × 3, i.v. on days 1, 5 and 9
Summary of the method: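 Drug dosing was intravenous on the first, fifth and ninth days after intraperitoneal inoculation of P-388 leukemia cells (1×10^6 per mouse) into BDF1 mice. Vehicles were physiological saline alone, or saline with small amounts of sodium carboxymethyl cellulose or Tween-80.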

[1] = Acute toxicity, intravenous (once), ddY mice; type: in vivo; details: mouse, in vivo, formulated per Preparation Example
Text: In Table 7 are shown acute toxicity values (LD50, mg/kg) in ddY mice in the case of intravenously administering (once) each of the compounds of this invention in the form of preparations shown in the Preparation Examples shown in Table 7.

[2] = Mus musculus, P388, iv, dose c: 40 mg/kg × 3, i.v. on days 1, 5 and 9, BDF1 mice, P-388 i.p., read-out: T/C (%) of MST
[3] = Mus musculus, P388, iv, dose f: 80 mg/kg × 3, i.v. on days 1, 5 and 9, BDF1 mice, P-388 i.p., read-out: T/C (%) of MST
[4] = Mus musculus, P388, iv, BDF1 mice, P-388 i.p., read-out: T/C (%) of MST
[5] = Mus musculus, P388, iv, read-out: T/C (%) of MST

SMILES	response vs control in vivo at 40 mg/kg (P-388 leukemia cells; [2]) [%]	response vs control in vivo at 80 mg/kg (P-388 leukemia cells; [3]) [%]	LD50 ([1]; iv) [mg/kg]	also measured
CO[C@H]1[C@@H](O)[C@@H](C)O[C@H](O[C@H]2[C@H](Oc3cccc4c(OC(=O)C5CC5C)c5c(=O)oc6ccc(C)c7c(=O)oc(c34)c5c67)O[C@H](C)[C@@H]3OC(C)(C)O[C@@H]32)[C@@H]1O (some centres unmarked) [Compound No. 178]	142	181	≥ 80	
COC1C(O)C(C)OC(OC2C(Oc3cccc4c(OC(=O)CC(C)C)c5c(=O)oc6ccc(C)c7c(=O)oc(c34)c5c67)OC(C)C3OC(c4ccc(F)cc4)OC32)C1O (centres unmarked) [Compound No. 159]	171	216	≥ 40	
CO[C@H]1[C@@H](O)[C@@H](C)O[C@H](O[C@H]2[C@H](Oc3cccc4c(OC(=O)c5ccc(Cl)cc5)c5c(=O)oc6ccc(C)c7c(=O)oc(c34)c5c67)O[C@H](C)[C@@H]3OC(C)(C)O[C@@H]32)[C@@H]1O [Compound No. 185]	142	192	≥ 80	
COC1C(O)C(C)OC(OC2C(Oc3cccc4c(OC(=O)CCCCCN)c5c(=O)oc6ccc(C)c7c(=O)oc(c34)c5c67)OC(C)C3OC(c4ccccc4)OC32)C1O (centres unmarked) [Compound No. 19]	233		≥ 40	response vs control in vivo at 20 mg/kg (P-388 leukemia cells; [4]): 184%
COC1C(O)C(C)OC(OC2C(Oc3cccc4c(OC(=O)CCCNC(=O)OCc5ccccc5)c5c(=O)oc6ccc(C)c7c(=O)oc(c34)c5c67)OC(C)C3OC(c4ccccc4)OC32)C1O (centres unmarked) [compound 76]	184		≥ 40	response vs control in vivo at 20 mg/kg (P-388 leukemia cells; [4]): 135%
COC1C(O)C(C)OC(OC2C(Oc3cccc4c(OC(=O)C(C)CNC(=O)CN(C)C)c5c(=O)oc6ccc(C)c7c(=O)oc(c34)c5c67)OC(C)C3OC(c4ccccc4)OC32)C1O (centres unmarked) [Compound No. 4]	216		≥ 40	response vs control in vivo at 20 mg/kg (P-388 leukemia cells; [4]): 184%
COC1C(O)C(C)OC(OC2C(Oc3cccc4c(OC(=O)CCNC(=O)CN)c5c(=O)oc6ccc(C)c7c(=O)oc(c34)c5c67)OC(C)C3OC(c4ccccc4)OC32)C1O (centres unmarked) [compound 10]	197		≥ 40	response vs control in vivo at 20 mg/kg (P-388 leukemia cells; [4]): 161%
COC1C(O)C(C)OC(OC2C(Oc3cccc4c(OC(=O)C5CCCCC5NC(=O)OCc5ccccc5)c5c(=O)oc6ccc(C)c7c(=O)oc(c34)c5c67)OC(C)C3OC(c4ccccc4)OC32)C1O (centres unmarked) [Compound No. 62]	210		≥ 40	response vs control in vivo at 20 mg/kg (P-388 leukemia cells; [4]): 155%
COC1C(O)C(C)OC(OC2C(Oc3cccc4c(OC(=O)CCCCCNC(=O)C(F)(F)F)c5c(=O)oc6ccc(C)c7c(=O)oc(c34)c5c67)OC(C)C3OC(c4ccc(F)cc4)OC32)C1O (centres unmarked) [compound 97]			≥ 30	response vs control in vivo at 20 mg/kg (P-388 leukemia cells; [4]): 156%
COC1C(O)C(C)OC(OC2C(Oc3cccc4c(OC(=O)CCNC(=O)CNC(=O)OCc5ccccc5)c5c(=O)oc6ccc(C)c7c(=O)oc(c34)c5c67)OC(C)C3OC(c4cccc(F)c4)OC32)C1O (centres unmarked) [Compound No. 61]	220		≥ 40	response vs control in vivo at 20 mg/kg (P-388 leukemia cells; [4]): 176%
COC1C(O)C(C)OC(OC2C(Oc3cccc4c(OC(=O)CC(C)NC(=O)C(F)(F)F)c5c(=O)oc6ccc(C)c7c(=O)oc(c34)c5c67)OC(C)C3OC(C)(C)OC32)C1O (centres unmarked) [Compound No. 51]	136	207	≥ 100	
COC1C(O)C(C)OC(OC2C(Oc3cccc4c(OC(=O)C(Cc5c[nH]c6ccccc56)NC(=O)OCc5ccccc5)c5c(=O)oc6ccc(C)c7c(=O)oc(c34)c5c67)OC(C)C3OC(c4ccccc4)OC32)C1O (centres unmarked) [compound 121]	146		≥ 40	
C#CCCC(=O)Oc1c2cccc(O[C@@H]3O[C@H](C)[C@@H]4OC(C)(C)O[C@@H]4[C@H]3O[C@H]3O[C@H](C)[C@H](O)[C@H](OC)[C@H]3O)c2c2oc(=O)c3c(C)ccc4oc(=O)c1c2c43 [compound 201]	162		≥ 60	
COC1C(O)C(C)OC(OC2C(Oc3cccc4c(OC(=O)c5ccc(Br)cc5)c5c(=O)oc6ccc(C)c7c(=O)oc(c34)c5c67)OC(C)C3OC(c4ccccc4)OC32)C1O (centres unmarked) [compound 229]			≥ 80	response vs control in vivo at 60 mg/kg (P-388 leukemia cells; Mus musculus, P388, iv, dose e: 60 mg/kg × 3, i.v. on days 1, 5 and 9, BDF1 mice, P-388 i.p., read-out: T/C (%) of MST): 167%
COC1C(O)C(C)OC(OC2C(Oc3cccc4c(OC(=O)CCNC=O)c5c(=O)oc6ccc(C)c7c(=O)oc(c34)c5c67)OC(C)C3OC(c4cccc([N+](=O)[O-])c4)OC32)C1O (centres unmarked) [compound 120]	148		≥ 40	
COC1C(O)C(C)OC(OC2C(Oc3cccc4c(OC(=O)CCNC(C)=O)c5c(=O)oc6ccc(C)c7c(=O)oc(c34)c5c67)OC(C)C3OC(C)(C)OC32)C1O (stereo not drawn) [Compound No. 87, 6-O-(N-Acetyl-β-Alanyl)-3',4'-O-Isopropylidene-Chartreusin]	134	183	≥ 100	
CO[C@H]1[C@@H](O)[C@@H](C)O[C@H](O[C@H]2[C@H](Oc3cccc4c(OC(=O)COC(=O)c5ccccc5)c5c(=O)oc6ccc(C)c7c(=O)oc(c34)c5c67)O[C@H](C)[C@@H]3OC(C)(C)O[C@@H]32)[C@@H]1O [compound 199]			≥ 60	response vs control in vivo at 50 mg/kg (P-388 leukemia cells; Mus musculus, P388, iv, dose d: 50 mg/kg × 3, i.v. on days 1, 5 and 9, BDF1 mice, P-388 i.p., read-out: T/C (%) of MST): 159%
C=CCCC(=O)Oc1c2cccc(OC3OC(C)C4OC(c5cccc([N+](=O)[O-])c5)OC4C3OC3OC(C)C(O)C(OC)C3O)c2c2oc(=O)c3c(C)ccc4oc(=O)c1c2c43 (centres unmarked) [Compound No. 160]	160	218	≥ 80	
CO[C@H]1[C@@H](O)[C@@H](C)O[C@H](O[C@H]2[C@H](Oc3cccc4c(OC(=O)c5ccccc5Cl)c5c(=O)oc6ccc(C)c7c(=O)oc(c34)c5c67)O[C@H](C)[C@@H]3OC(C)(C)O[C@@H]32)[C@@H]1O [Compound No. 181]	145	208	≥ 80	
COC1C(O)C(C)OC(OC2C(Oc3cccc4c(OC(=O)C5CC5)c5c(=O)oc6ccc(C)c7c(=O)oc(c34)c5c67)OC(C)C3OC(c4ccccc4)OC32)C1O (centres unmarked) [compound 232]			≥ 40	response vs control in vivo at 10 mg/kg (P-388 leukemia cells; Mus musculus, P388, iv, dose a: 10 mg/kg × 3, i.v. on days 1, 5 and 9, BDF1 mice, P-388 i.p., read-out: T/C (%) of MST): 146%
COC1C(O)C(C)OC(OC2C(Oc3cccc4c(OC(=O)CCCCCNC(=O)C(F)(F)F)c5c(=O)oc6ccc(C)c7c(=O)oc(c34)c5c67)OC(C)C3OC(CC(C)=O)OC32)C1O (centres unmarked) [compound 130]			≥ 180	response vs control in vivo at 160 mg/kg (P-388 leukemia cells; Mus musculus, P388, iv, dose i: 160 mg/kg × 3, i.v. on days 1, 5 and 9, BDF1 mice, P-388 i.p., read-out: T/C (%) of MST): 141%
COC1C(O)C(C)OC(OC2C(Oc3cccc4c(OC(=O)CCCNC(=O)C(F)(F)F)c5c(=O)oc6ccc(C)c7c(=O)oc(c34)c5c67)OC(C)C3OC(c4ccc(F)cc4)OC32)C1O (centres unmarked) [compound 91]			≥ 40	T/C (%) of MST (P-388 leukemia cells; dose c: 40 mg/kg × 3, i.v. on days 1, 5 and 9, BDF1 mice, P-388 i.p.): 173%
CCC1O[C@H]2[C@@H](O1)[C@@H](C)O[C@@H](Oc1cccc3c(OC(=O)C(C)CC)c4c(=O)oc5ccc(C)c6c(=O)oc(c13)c4c56)[C@@H]2O[C@H]1O[C@H](C)[C@H](O)[C@H](OC)[C@H]1O (some centres unmarked) [compound 219]				response vs control in vivo at 40 mg/kg (P-388 leukemia cells; [5]): 130%; response vs control in vivo at 80 mg/kg (P-388 leukemia cells; [5]): 182%; LD50 [1]: ≥ 80 mg/kg
COC1C(O)C(C)OC(OC2C(Oc3cccc4c(OC(=O)CC(C)NC(=O)C(F)(F)F)c5c(=O)oc6ccc(C)c7c(=O)oc(c34)c5c67)OC(C)C3OC(c4ccccc4Cl)OC32)C1O (centres unmarked) [compound 94]		183	≥ 80	
COC1C(O)C(C)OC(OC2C(Oc3cccc4c(OC(=O)CCNC=O)c5c(=O)oc6ccc(C)c7c(=O)oc(c34)c5c67)OC(C)C3OC(c4ccccc4C)OC32)C1O (centres unmarked) [Compound No. 55]	162		≥ 40	
CCOCCC(=O)Oc1c2cccc(OC3OC(C)C4OC(C)(C)OC4C3OC3OC(C)C(O)C(OC)C3O)c2c2oc(=O)c3c(C)ccc4oc(=O)c1c2c43 (centres unmarked) [Compound No. 176]	155	208	≥ 80	
COC(=O)CCC(=O)Oc1c2cccc(O[C@@H]3O[C@H](C)[C@@H]4OC(C)(C)O[C@@H]4[C@H]3O[C@H]3O[C@H](C)[C@H](O)[C@H](OC)[C@H]3O)c2c2oc(=O)c3c(C)ccc4oc(=O)c1c2c43 [compound 202]	174		≥ 60	
COC1C(O)C(C)OC(OC2C(Oc3cccc4c(OC(=O)CCNC=O)c5c(=O)oc6ccc(C)c7c(=O)oc(c34)c5c67)OC(C)C3OC(c4c(F)c(F)c(F)c(F)c4F)OC32)C1O (centres unmarked) [compound 113]	138		≥ 40	
COC1C(O)C(C)OC(OC2C(Oc3cccc4c(OC(=O)CCNC(=O)OCc5ccccc5)c5c(=O)oc6ccc(C)c7c(=O)oc(c34)c5c67)OC(C)C3OC(c4cccc(F)c4)OC32)C1O (centres unmarked) [compound 73]	229		≥ 40	response vs control in vivo at 20 mg/kg (P-388 leukemia cells; [4]): 176%
